# Reference: PubChem BioAssay AID248 (DTP/NCI, 2004)
# Where “and” joins values, the source holds several entries; their conditions need not be identical. Identical values can stand only once. Toxic doses and inconclusive results are not listed.
# System: L1210 leukemia ip in BDF1 mice, survival T/C
# Experiment: NCI In Vivo Anticancer Drug Screen. Data for tumor model L1210 Leukemia (intraperitoneal) in B6D2F1 (BDF1) mice
# Details: endpoint: mean survival time, higher = longer survival
# Method in brief: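 Survival endpoint. Drug-treated group vs vehicle group, expressed as T divided by C. Tumor passaged by transplantation.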
# [1] = dose: 100.0 mg/kg/injection, schedule: Q01DX009 (ip), vehicle: Klucel (hydroxypropylcellulose) (HPC)
# [2] = dose: 100.0 mg/kg/injection, schedule: Q04DX002 (ip), vehicle: Klucel (hydroxypropylcellulose) (HPC)
# [3] = dose: 100.0 mg/kg/injection, schedule: Q04DX003 (ip), vehicle: Klucel (hydroxypropylcellulose) (HPC)
# [4] = dose: 200.0 mg/kg/injection, schedule: Q04DX002 (ip), vehicle: Klucel (hydroxypropylcellulose) (HPC)
# [5] = dose: 200.0 mg/kg/injection, schedule: Q04DX003 (ip), vehicle: Klucel (hydroxypropylcellulose) (HPC)
# [6] = dose: 100.0 mg/kg/injection, schedule: Q01DX009 (ip), vehicle: saline with Tween-80
# [7] = dose: 100.0 mg/kg/injection, schedule: Q04DX002 (ip), vehicle: saline with Tween-80
# [8] = dose: 100.0 mg/kg/injection, schedule: Q04DX003 (ip), vehicle: saline with Tween-80
# [9] = dose: 200.0 mg/kg/injection, schedule: Q01DX009 (ip), vehicle: saline with Tween-80
# [10] = dose: 200.0 mg/kg/injection, schedule: Q04DX003 (ip), vehicle: saline with Tween-80
# [11] = dose: 400.0 mg/kg/injection, schedule: Q01DX009 (ip), vehicle: saline with Tween-80
# [12] = dose: 400.0 mg/kg/injection, schedule: Q04DX002 (ip), vehicle: saline with Tween-80
# [13] = dose: 400.0 mg/kg/injection, schedule: Q04DX003 (ip), vehicle: saline with Tween-80
# [14] = dose: 75.0 mg/kg/injection, schedule: Q01DX001 (ip), vehicle: saline
# [15] = dose: 150.0 mg/kg/injection, schedule: Q01DX001 (ip), vehicle: saline
# [16] = dose: 400.0 mg/kg/injection, schedule: Q04DX003 (ip), vehicle: Klucel (hydroxypropylcellulose) (HPC)
# [17] = dose: 200.0 mg/kg/injection, schedule: Q01DX009 (ip), vehicle: Klucel (hydroxypropylcellulose) (HPC)
# [18] = dose: 400.0 mg/kg/injection, schedule: Q01DX009 (ip), vehicle: Klucel (hydroxypropylcellulose) (HPC)
# [19] = dose: 100.0 mg/kg/injection, schedule: Q01DX001 (ip), vehicle: carboxymethylcellulose (CMC)
# [20] = dose: 200.0 mg/kg/injection, schedule: Q01DX001 (ip), vehicle: carboxymethylcellulose (CMC)
# [21] = dose: 400.0 mg/kg/injection, schedule: Q01DX001 (ip), vehicle: carboxymethylcellulose (CMC)
# [22] = dose: 200.0 mg/kg/injection, schedule: Q01DX009 (ip), vehicle: saline
structure (smiles),measurement,setting,value
NC(N)=NC(N)=Nc1ccccc1Br,T/C,"dose: 50.0 mg/kg/injection, schedule: Q01DX009 (ip), vehicle: Klucel (hydroxypropylcellulose) (HPC)",106 % of control
same,T/C,[1],104 % of control
same,T/C,[2],107 % of control
same,T/C,[3],98 % of control
same,T/C,[4],104 % of control
same,T/C,[5],110 % of control
CC(=O)c1cccc(NC(=O)Oc2cc(C)c(Cl)c(C)c2)c1,T/C,"dose: 100.0 mg/kg/injection, schedule: Q01DX001 (ip), vehicle: saline with Tween-80",97 % of control
same,T/C,[6],94 % of control and 92 % of control
same,T/C,[7],94 % of control and 101 % of control
same,T/C,[8],93 % of control
same,T/C,"dose: 200.0 mg/kg/injection, schedule: Q01DX001 (ip), vehicle: saline with Tween-80",100 % of control
same,T/C,[9],88 % of control and 89 % of control
same,T/C,"dose: 200.0 mg/kg/injection, schedule: Q04DX002 (ip), vehicle: saline with Tween-80",93 % of control and 89 % of control
same,T/C,[10],87 % of control
same,T/C,"dose: 400.0 mg/kg/injection, schedule: Q01DX001 (ip), vehicle: saline with Tween-80",98 % of control
same,T/C,[11],91 % of control
same,T/C,[12],96 % of control and 101 % of control
same,T/C,[13],90 % of control
CCNC(C)(C)C(SSS)c1cccs1 (centres undefined),T/C,"dose: 100.0 mg/kg/injection, schedule: Q01DX009 (ip), vehicle: saline sonified",96 % of control
same,T/C,"dose: 100.0 mg/kg/injection, schedule: Q04DX003 (ip), vehicle: saline sonified",91 % of control
same,T/C,"dose: 200.0 mg/kg/injection, schedule: Q01DX009 (ip), vehicle: saline sonified",94 % of control
same,T/C,"dose: 200.0 mg/kg/injection, schedule: Q04DX003 (ip), vehicle: saline sonified",87 % of control
same,T/C,"dose: 400.0 mg/kg/injection, schedule: Q01DX009 (ip), vehicle: saline sonified",88 % of control
same,T/C,"dose: 400.0 mg/kg/injection, schedule: Q04DX003 (ip), vehicle: saline sonified",89 % of control
CC1(C)COc2cc([N+](=O)[O-])cc(N)c2N1,T/C,[14],107 % of control
same,T/C,"dose: 75.0 mg/kg/injection, schedule: Q04DX003 (ip), vehicle: acetone",110 % of control
same,T/C,[15],100 % of control
same,T/C,"dose: 150.0 mg/kg/injection, schedule: Q04DX003 (ip), vehicle: acetone",95 % of control
same,T/C,"dose: 300.0 mg/kg/injection, schedule: Q01DX001 (ip), vehicle: saline",96 % of control
same,T/C,"dose: 300.0 mg/kg/injection, schedule: Q04DX003 (ip), vehicle: acetone",101 % of control
COCCCNC(=S)C(=S)NCCCOC,T/C,[2],97 % of control
same,T/C,[4],107 % of control
NCCCP(c1ccccc1)c1ccccc1,T/C,[14],105 % of control
same,T/C,[15],92 % of control
CCOC(=O)C1OC12c1cccc3cccc(c13)C21OC1C(=O)OCC (centres undefined),T/C,[6],92 % of control
same,T/C,[9],90 % of control
same,T/C,[11],98 % of control
O=C(O)CSCc1ccc(Cl)cc1,T/C,"dose: 100.0 mg/kg/injection, schedule: Q01DX001 (ip), vehicle: acetone",95 % of control
same,T/C,[3],94 % of control
same,T/C,"dose: 200.0 mg/kg/injection, schedule: Q01DX001 (ip), vehicle: acetone",97 % of control
same,T/C,[5],98 % of control
same,T/C,"dose: 400.0 mg/kg/injection, schedule: Q01DX001 (ip), vehicle: acetone",97 % of control
same,T/C,[16],98 % of control
C1CNC(C2=NCCN2)=N1,T/C,"dose: 100.0 mg/kg/injection, schedule: Q04DX002 (ip), vehicle: saline",100 % of control
same,T/C,"dose: 200.0 mg/kg/injection, schedule: Q04DX002 (ip), vehicle: saline",100 % of control
same,T/C,"dose: 400.0 mg/kg/injection, schedule: Q04DX002 (ip), vehicle: saline",90 % of control
O=C1C2C3CCC(O3)C2C(=O)N1Cc1ccccc1CN1C(=O)C2C3CCC(O3)C2C1=O (centres undefined),T/C,[1],91 % of control
same,T/C,[17],91 % of control
same,T/C,[18],88 % of control
CC1OCC2OC(C)OC(C(COC(=O)c3ccc([N+](=O)[O-])cc3)OS(C)(=O)=O)C2O1 (centres undefined),T/C,[1],113 % of control
same,T/C,[3],102 % of control
same,T/C,[17],108 % of control
same,T/C,[5],104 % of control
same,T/C,[18],92 % of control
same,T/C,[16],96 % of control
CCOc1ccc(NS(=O)(=O)c2ccc(Cl)cc2)cc1,T/C,[1],102 % of control
same,T/C,[17],112 % of control
same,T/C,[18],116 % of control
Nc1nc(N)nc(Cl)n1,T/C,[7],98 % of control
same,T/C,[12],95 % of control
O=C(NCc1ccccc1)C(Cc1ccccc1)Cc1ccccc1,T/C,[19],93 % of control
same,T/C,[20],95 % of control
same,T/C,[21],98 % of control
CCc1c2cc(OC)c(OC)cc2cc2c3cc(OC)c(OC)cc3cc[n+]12 (tested in a mixture with another compound),T/C,"dose: 25.0 mg/kg/injection, schedule: Q01DX009 (ip), vehicle: saline",116 % of control
same,T/C,"dose: 50.0 mg/kg/injection, schedule: Q01DX009 (ip), vehicle: saline",123 % of control
same,T/C,"dose: 66.0 mg/kg/injection, schedule: Q01DX009 (ip), vehicle: saline with Tween-80",150 % of control
same,T/C,"dose: 88.0 mg/kg/injection, schedule: Q04DX003 (ip), vehicle: saline",121 % of control
same,T/C,[6],160 % of control
same,T/C,"dose: 150.0 mg/kg/injection, schedule: Q01DX009 (ip), vehicle: saline with Tween-80",156 % of control
same,T/C,[22],89 % of control
same,T/C,"dose: 300.0 mg/kg/injection, schedule: Q04DX003 (ip), vehicle: saline",107 % of control
O=C(O)C1C2CC3OC(=O)C1C3C2 (centres undefined),T/C,"dose: 100.0 mg/kg/injection, schedule: Q01DX001 (ip), vehicle: saline",93 % of control
same,T/C,"dose: 100.0 mg/kg/injection, schedule: Q01DX009 (ip), vehicle: saline",98 % of control
same,T/C,[8],91 % of control
same,T/C,"dose: 100.0 mg/kg/injection, schedule: Q04DX003 (ip), vehicle: saline",97 % of control and 98 % of control
same,T/C,"dose: 200.0 mg/kg/injection, schedule: Q01DX001 (ip), vehicle: saline",94 % of control
same,T/C,[22],87 % of control
same,T/C,[10],94 % of control
same,T/C,"dose: 200.0 mg/kg/injection, schedule: Q04DX003 (ip), vehicle: saline",95 % of control and 100 % of control
same,T/C,"dose: 400.0 mg/kg/injection, schedule: Q01DX001 (ip), vehicle: saline",100 % of control
same,T/C,"dose: 400.0 mg/kg/injection, schedule: Q01DX009 (ip), vehicle: saline",87 % of control
same,T/C,[13],104 % of control
same,T/C,"dose: 400.0 mg/kg/injection, schedule: Q04DX003 (ip), vehicle: saline",98 % of control and 115 % of control
CCCCCC1SC1CC1SC1CCCCCCCC(=O)NCCCOCCOCCOCC (centres undefined),T/C,[6],121 % of control
same,T/C,[9],104 % of control
CCCC1CCCC(=O)N1 (centres undefined),T/C,[14],98 % of control
same,T/C,[15],98 % of control
O=NN(CCCCl)C(=O)Nc1ccc(NC(=O)N(CCCCl)N=O)cc1,T/C,"dose: 12.5 mg/kg/injection, schedule: Q01DX001 (ip), vehicle: carboxymethylcellulose (CMC)",111 % of control
same,T/C,"dose: 25.0 mg/kg/injection, schedule: Q01DX001 (ip), vehicle: carboxymethylcellulose (CMC)",109 % of control
same,T/C,"dose: 50.0 mg/kg/injection, schedule: Q01DX001 (ip), vehicle: carboxymethylcellulose (CMC)",106 % of control
same,T/C,[19],117 % of control
same,T/C,[20],111 % of control
same,T/C,"dose: 300.0 mg/kg/injection, schedule: Q01DX001 (ip), vehicle: carboxymethylcellulose (CMC)",111 % of control
same,T/C,[21],106 % of control
same,T/C,"dose: 500.0 mg/kg/injection, schedule: Q01DX001 (ip), vehicle: carboxymethylcellulose (CMC)",106 % of control
same,T/C,"dose: 600.0 mg/kg/injection, schedule: Q01DX001 (ip), vehicle: carboxymethylcellulose (CMC)",109 % of control
same,T/C,"dose: 800.0 mg/kg/injection, schedule: Q01DX001 (ip), vehicle: carboxymethylcellulose (CMC)",112 % of control
same,T/C,"dose: 1000.0 mg/kg/injection, schedule: Q01DX001 (ip), vehicle: carboxymethylcellulose (CMC)",114 % of control
CC1(C)C2CCC1(C)C(COC(=O)c1cc([N+](=O)[O-])cc([N+](=O)[O-])c1)C2 (centres undefined),T/C,[1],100 % of control
same,T/C,[3],104 % of control
same,T/C,[17],92 % of control
same,T/C,[5],100 % of control
same,T/C,[18],89 % of control
same,T/C,[16],102 % of control
